Like-named read-outs stand apart in the source and are kept apart here.
Experiments:
[1] = system: SNAIL-HMLE, MDA-MB-231, and SUM159; experiment: Growth inhibition of additional mesenchymal breast cancer cell lines; assay type: cell-based, human; conditions: MDA-MB-231, SUM159, express FOXC2 from endogenous locus
Text: The propagation conditions and generation of FOXC2-HMLER, HMLER, SNAIL-HMLER, SNAIL-HMLE, and SUM159 cells have been described previously (Mani (2008)). MCF-7, HepG2, HCT116, and MDA-MB-231 cells were from ATCC and maintained in DMEM medium (Corning) supplemented with 10% FBS (Corning) with Anti-anti (Gibco). The soft tissue sarcoma cell line panel was purchased from ATCC (TCP-1019) and maintained in the recommended medium for each cell type. HUVEC cells (pooled donor) were maintained in EBM-2 medium (both from Lonza Walkersville). Primary human lung fibroblasts were maintained in Fibroblast Medium (both from Sciencell Research Laboratories). For cell growth experiments, HLFs were grown in DMEM supplemented with 2% FBS and Anti-anti. For all experiments, primary human cells were used at a passage no greater than 4.
For high throughput screening, FOXC2-HMLER and HMLER cells were plated at 10^3 cells per well in white 384-well plates in 50 μL of MEGM medium (Lonza). Cells were allowed to attach for one hour before compound was transferred to each well as a DMSO solution using a 100 nL pintool head affixed to a PerkinElmer FX instrument. After 72-hour incubation, 30 μL of a Cell Titer Glo solution (diluted 1:6 in water, Promega) was dispensed into each well and luminance values were recorded using an Envision plate reader. […]

FOXC2-HMLER cells = experiment: Confocal imaging of thymidine synced FOXC2-HMLER cells at metaphase; assay type: cell-based, human
Text: Because Compound 1 induces a hyper-phosphorylated VIM phenotype, we sought to determine if Compound 1's engagement of VIM might interfere at an alternative stage of mitosis. We therefore performed time course confocal imaging studies of Compound 1 treated FOXC2-HMLER cells after their release from thymidine blocking-based cell cycle synchronization.
Compound 1 treatment also disrupted the ability of β-tubulin to faithfully form the fine spindle microtubules of the mitotic spindle, instead resulting in a compressed phenotype with radiating projections connecting unaligned chromosomes. To assess the uniqueness of this phenotype, we evaluated the metaphase phenotypes of other chemical inhibitors which have shown to alter mitotic progression. These included inhibitors of centromere-associated protein E (CENP-E, also called kinesin-7, GSK92395), kinesin spindle protein (KSP, also called Eg5, Ispinesib), polo like kinases (PLK1/2/3, BI2536), and aurora kinases (AURKA/B/C, VX-680).

VIM = target: T1, VIM (Homo sapiens, UniProt P08670); experiment: Immunofluorescent analysis of VIM filamentous architecture in HUVECs; assay type: cell-based; conditions: one-hour treatment
T1 construct: endogenous in cells; host or cells: FOXC2-HMLER
T1 sequence (P08670 whole entry): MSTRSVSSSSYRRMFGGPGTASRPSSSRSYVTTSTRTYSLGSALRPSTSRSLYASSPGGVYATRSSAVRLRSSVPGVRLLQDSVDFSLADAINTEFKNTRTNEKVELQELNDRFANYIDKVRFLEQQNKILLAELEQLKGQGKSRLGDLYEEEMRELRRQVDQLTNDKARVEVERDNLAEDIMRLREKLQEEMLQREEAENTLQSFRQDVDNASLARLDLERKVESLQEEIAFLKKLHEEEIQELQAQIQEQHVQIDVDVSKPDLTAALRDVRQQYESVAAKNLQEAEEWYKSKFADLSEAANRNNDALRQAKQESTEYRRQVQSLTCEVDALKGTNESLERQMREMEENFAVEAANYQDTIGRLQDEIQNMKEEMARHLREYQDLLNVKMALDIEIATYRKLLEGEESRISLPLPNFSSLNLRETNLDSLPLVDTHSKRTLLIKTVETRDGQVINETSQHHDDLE

[2] = system: FOXC2-HMLER, SNAIL-HMLER, SUM159, and MDA-MB-231 cells; experiment: In vitro mammosphere formation assay; assay type: cell-based, human; conditions: 1 μM compound during assay (14 days)
Protocol: FIG. 3: Quantification of mammospheres from an in vitro mammosphere formation assay with the indicated cell types. Pretreatment indicates a 72-hour treatment with 1 μM Compound 1 before plating in mammosphere formation conditions. The expression “during assay” indicates 1 μM compound treatment during the mammosphere assay (14 days) (n=3, mean and s.d.).
Epithelial-mesenchymal transition (EMT) induction endows breast cancer cells with the ability to grow as mammospheres in culture (Mani (2008)).

[3] = system: FOXC2-expressing HMLER cells; experiment: Cell Titer Glo viability of FOXC2-HMLER cells (high throughput screen and 10-point response); assay type: cell-based; conditions: Homo sapiens
In short: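 Viability after 72 h compound exposure was measured as Cell Titer Glo luminescence. FOXC2-HMLER and parental HMLER cells, 1,000 per well in MEGM medium, were dosed 1 h after plating; screening concentration was 2 μM.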

## Clc1cccc(N2CCN(c3cnnc4c(Cl)cccc34)CC2)c1 [Compound 1, 8-chloro-4-(4-(3-chlorophenyl)piperazin-1-yl)cinnoline]
[1]
  growth of additional mesenchymal breast cancer cell lines: inhibit the growth
FOXC2-HMLER cells
  VIM filamentous structure at metaphase: collapsed VIM filamentous structure
  chromosome alignment to the metaphase plate: inhibited the ability of chromosomes to align to the metaphase plate
VIM
  VIM filamentous architecture in HUVECs: promoted the destruction of fine VIM-containing filamentous structures
[2]
  ability to form mammospheres in culture: inhibited the ability
[3]; 72-hour incubation, read-out: FOXC2-HMLER IC50
  IC50: 234 nM
[3]; scored relative to parent compound 1, 72 hours, read-out: Activity Score, inhibition of FOXC2-expressing HMLER cells by Formula I compounds
  IC50: < 1000 nM
